Results: US9249163B2, “PDE10a inhibitors for the treatment of type II diabetes” (Janssen Pharmaceutica, NV, priority 2013, dated 2016)
Where a name gives a salt, the structure may show the parent alone.

How the values were obtained:
[1] = target: Rat recombinant PDE10a (rPDE10a) (Rattus norvegicus (Rat), UniProt Q9QYJ6); assay: In vitro assay PDE10a (rat recombinant PDE10a, SPA); format: biochemical; conditions: 60 nM cAMP, 60 min at rt, read-out: rPDE10a2 IC50
How it was run: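 Rat PDE10a expressed in Sf9 cells (baculovirus) and Ni-sepharose purified. Incubated with compound for 60 min at rt in 50 mM Tris pH 7.8, 8.3 mM MgCl2, 1.7 mM EGTA with 60 nM cAMP plus 0.008 μCi ^3H-cAMP (final), 1% DMSO. Read-out by PDE SPA bead scintillation counting (cpm), no-enzyme blank.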

[2] = target: Human recombinant PDE10A2 (Homo sapiens (Human), UniProt Q9Y233); assay: In vitro hPDE10a (human recombinant PDE10A2, scintillation proximity assay); format: biochemical; conditions: human recombinant PDE10A2, 60 nM cAMP, 60 min at room temperature; read-out: hPDE10a2 IC50
Sequence of Human recombinant PDE10A2 (Q9Y233 267-1055): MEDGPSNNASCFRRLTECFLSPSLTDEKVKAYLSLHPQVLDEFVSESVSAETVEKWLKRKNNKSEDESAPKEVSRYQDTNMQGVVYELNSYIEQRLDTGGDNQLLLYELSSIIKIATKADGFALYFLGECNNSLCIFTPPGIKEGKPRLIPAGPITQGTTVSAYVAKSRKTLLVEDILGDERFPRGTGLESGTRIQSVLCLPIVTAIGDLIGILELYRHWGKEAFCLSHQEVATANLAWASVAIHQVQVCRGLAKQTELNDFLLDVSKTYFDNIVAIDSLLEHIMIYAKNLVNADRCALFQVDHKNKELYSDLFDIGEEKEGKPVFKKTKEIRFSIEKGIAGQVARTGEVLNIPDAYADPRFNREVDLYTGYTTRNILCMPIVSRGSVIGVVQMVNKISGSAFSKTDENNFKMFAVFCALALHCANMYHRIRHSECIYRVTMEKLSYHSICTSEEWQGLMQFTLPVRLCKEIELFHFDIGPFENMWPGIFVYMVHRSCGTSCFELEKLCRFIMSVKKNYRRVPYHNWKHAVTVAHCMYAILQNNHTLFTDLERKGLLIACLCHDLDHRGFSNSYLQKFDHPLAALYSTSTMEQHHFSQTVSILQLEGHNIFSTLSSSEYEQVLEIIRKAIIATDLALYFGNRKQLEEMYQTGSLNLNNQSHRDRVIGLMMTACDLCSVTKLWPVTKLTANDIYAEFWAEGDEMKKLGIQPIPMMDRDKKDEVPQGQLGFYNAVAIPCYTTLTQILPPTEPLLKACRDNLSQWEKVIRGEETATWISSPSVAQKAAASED

[3] = PDE10a-perfused brain permeability study (plasma and brain concentrations); conditions: male, Sprague-Dawley, rat; for Kp at 2 h: brain/plasma
Procedure: Drug administration by oral gavage, subcutaneous injection or intravenous was carried out using male Sprague Dawley rats under IACUC protocol (SH-MET3010). Male Sprague Dawley rats (Charles River) ˜300-350 g were maintained on a 4% standard rodent diet (Test Diet 5001). They are allowed ad libitum access to water and food. Room temperature was maintained at 64° F. and humidity at 30-70%.
Three animals per compound were provided a dose of 2 mg/mL in 20% HpbCD/Tris pH 8 by tail i.v. or 30 mpk p.o. or s.c. in 20% HpbCD/Tris pH 8, with PDE10a antagonists. A first blood sample was collected at 30 min via retro-orbital sinus (anesthetic by 70% CO2/30% O2) into heparinzed plasma separator tubes. The blood was centrifuged and 100 uL plasma was placed into a 96 well plate and saved on dry ice.
After the 120 min, the final blood sample was collected via retro-orbital sinus under anesthesia by IP 0.5 cc injection of a 4/1 mixture of Ketaset: AnaSed [(prepared 10 mL Ketaset (100 mg/mL Ketamine)+2.5 mL AnaSed (20 mg/mL Xylazine)]. The rats were then perfused with 400 mL heparinized saline (10,000 units/L) through the left ventricle of the heart; the brains were then removed (not including the medulla), weighed and homogenized in PBS (4 mL/g tissue). The samples were stored at −80° C. and submitted for chemical analysis of blood and brain concentrations. Endpoints of sample analysis consists of the plasma concentrations at 30 and 120 min, plus brain concentrations at 120 min.

Sequence of Rat recombinant PDE10a (rPDE10a) (Q9QYJ6 whole entry): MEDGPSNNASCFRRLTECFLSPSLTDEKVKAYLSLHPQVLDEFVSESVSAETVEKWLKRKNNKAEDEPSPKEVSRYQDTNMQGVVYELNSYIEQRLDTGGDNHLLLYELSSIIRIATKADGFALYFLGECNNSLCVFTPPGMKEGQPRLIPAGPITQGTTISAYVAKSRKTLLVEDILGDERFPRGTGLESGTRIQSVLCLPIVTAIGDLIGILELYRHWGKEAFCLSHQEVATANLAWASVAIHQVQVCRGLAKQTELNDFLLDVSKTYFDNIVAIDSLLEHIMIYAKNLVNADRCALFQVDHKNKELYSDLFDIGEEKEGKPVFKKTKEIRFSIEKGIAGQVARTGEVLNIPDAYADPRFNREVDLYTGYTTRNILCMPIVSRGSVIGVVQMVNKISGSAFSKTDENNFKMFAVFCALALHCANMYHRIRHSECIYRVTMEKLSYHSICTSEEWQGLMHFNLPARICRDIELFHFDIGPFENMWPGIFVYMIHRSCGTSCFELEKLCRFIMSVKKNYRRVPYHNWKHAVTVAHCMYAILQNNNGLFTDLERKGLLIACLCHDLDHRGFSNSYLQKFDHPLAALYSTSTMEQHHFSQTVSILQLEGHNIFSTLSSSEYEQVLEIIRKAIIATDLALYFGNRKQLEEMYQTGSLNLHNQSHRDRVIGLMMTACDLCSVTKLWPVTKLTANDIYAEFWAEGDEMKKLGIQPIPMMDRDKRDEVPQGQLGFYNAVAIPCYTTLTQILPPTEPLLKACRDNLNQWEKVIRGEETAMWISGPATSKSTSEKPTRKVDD

Structure (SMILES)	IC50 [1]	IC50 [2]	concentration at 2 h ([3]; brain)	Kp at 2 h [3]	concentration at 2 h ([3]; plasma)
O=C(O)C1CCN(c2ccc(-c3cnc(N4CCOCC4)c4nc(/C=C/c5ccc6ccccc6n5)cn34)cc2)CC1 [Cpd 14, (E)-1-(4-(8-Morpholino-2-(2-(quinolin-2-yl)vinyl)imidazo[1,2-a]pyrazin-5-yl)phenyl)piperidine-4-carboxylic acid trifluoroacetic acid salt]	0.011 µM	0.006 µM	35.5 ng/g	0.07	503 ng/mL
O=C(O)c1ccc(-c2cnc(N3CCOCC3)c3nc(/C=C/c4ccc5ccccc5n4)cn23)cc1 [Cpd 16, (E)-4-(8-morpholino-2-(2-(quinolin-2-yl)vinyl)imidazo[1,2-a]pyrazin-5-yl)benzoic acid trifluoroacetic acid salt]	–	–	0 ng/g	0	142 ng/mL
O=c1[nH]nnn1-c1ccc(-c2cnc(N3CCOCC3)c3nc(/C=C/c4ccc5ccccc5n4)cn23)cc1 [Cpd 55, (E)-1-(4-(8-Morpholino-2-(2-(quinolin-2-yl)vinyl)imidazo[1,2-a]pyrazin-5-yl)phenyl)-1H-tetrazol-5(4H)-one]	–	–	0 ng/g	0	118 ng/mL
CC(=O)NS(=O)(=O)c1ccc(-c2cnc(N3CCOCC3)c3nc(CCc4ccc5ccccc5n4)cn23)cc1 [Cpd 63, N-((4-(8-Morpholino-2-(2-(quinolin-2-yl)ethyl)imidazo[1,2-a]pyrazin-5-yl)phenyl)sulfonyl)acetamide]	< 0.001 µM	–	0 ng/g	0	2 ng/mL
CC(=O)NS(=O)(=O)c1ccc(-c2cnc(N3CCOCC3)c3nc(/C=C/c4ccc5ccccc5n4)cn23)cc1 [Cpd 69, (E)-N-(4-(8-Morpholino-2-(2-(quinolin-2-yl)vinyl)imidazo[1,2-a]pyrazin-5-yl)phenylsulfonyl)acetamide trifluoroacetic acid salt]	0.004 µM	0.004 µM	36.1 ng/g	1	73.6 ng/mL
O=c1[nH]c(-c2ccc(-c3cnc(N4CCOCC4)c4nc(CCc5ccc6ccccc6n5)cn34)cn2)no1 [Cpd 74, 3-[5-[8-(Morpholin-4-yl)-2-[2-(quinolin-2-yl)ethyl]imidazo[1,2-a]pyrazin-5-yl]pyridin-2-yl]-4,5-dihydro-1,2,4-oxadiazol-5-one]	< 0.001 µM	0.001 µM	0 ng/g	0	58 ng/mL
CS(=O)(=O)NC(=O)c1ccc(-c2cnc(N3CCOCC3)c3nc(COc4ccc5ccccc5n4)cn23)cn1 [Cpd 76, N-Methanesulfonyl-5-[8-(morpholin-4-yl)-2-[(quinolin-2-yloxy)methyl]imidazo[1,2-a]pyrazin-5-yl]pyridine-2-carboxamide]	0.003 µM	0.002 µM	0 ng/g	0	115 ng/mL
C(=C\c1cn2c(-c3ccc(-c4nnc[nH]4)nc3)cnc(N3CCOCC3)c2n1)/c1ccc2ccccc2n1 [Cpd 91, (E)-4-(5-(6-(2H-1,2,4-Triazol-3-yl)pyridin-3-yl)-2-(2-(quinolin-2-yl)vinyl)imidazo[1,2-a]pyrazin-8-yl)morpholine]	0.003 µM	0.012 µM	112 ng/g	0.55	209 ng/mL
c1ccc2nc(OCc3cn4c(-c5ccc(Sc6cnn[nH]6)nc5)cnc(N5CCOCC5)c4n3)ccc2c1 [Cpd 92, 4-(5-(6-((1H-1,2,3-Triazol-5-yl)thio)pyridin-3-yl)-2-((quinolin-2-yloxy)methyl)imidazo[1,2-a]pyrazin-8-yl)morpholine]	0.003 µM	0.006 µM	78.3 ng/g	0.77	135 ng/mL
C(=C\c1cn2c(-c3cnc4nc[nH]c4c3)cnc(N3CCOCC3)c2n1)/c1ccc2ccccc2n1 [Cpd 93, (E)-4-(5-(3H-Imidazo[4,5-b]pyridin-6-yl)-2-(2-(quinolin-2-yl)vinyl)imidazo[1,2-a]pyrazin-8-yl)morpholine]	0.01 µM	0.013 µM	0 ng/g	0	98 ng/mL
O=c1[nH]c(-c2ccc(-c3cnc(N4CCOCC4)c4nc(/C=C/c5ccc6ccccc6n5)cn34)cn2)no1 [Cpd 95, (E)-3-(5-(8-Morpholino-2-(2-(quinolin-2-yl)vinyl)imidazo[1,2-a]pyrazin-5-yl)pyridin-2-yl)-1,2,4-oxadiazol-5-ol]	< 0.001 µM	0.005 µM	0 ng/g	0	113 ng/mL
c1ccc2nc(OCc3cn4c(-c5ccc(-c6nnn[nH]6)nc5)cnc(N5CCOCC5)c4n3)ccc2c1 [Cpd 97, 4-(5-(6-(1H-Tetrazol-5-yl)pyridin-3-yl)-2-((quinolin-2-yloxy)methyl)imidazo[1,2-a]pyrazin-8-yl)morpholine]	0.001 µM	0.001 µM	0 ng/g	0	84 ng/mL
O=C(O)CNc1ccc(-c2cnc(N3CCOCC3)c3nc(COc4ccc5ccccc5n4)cn23)cn1 [Cpd 107, 2-((5-(8-Morpholino-2-((quinolin-2-yloxy)methyl)imidazo[1,2-a]pyrazin-5-yl)pyridin-2-yl)amino)acetic acid trifluoroacetic acid salt]	0.002 µM	0.002 µM	0 ng/g	0	22.5 ng/mL
NS(=O)(=O)N1CCC(c2cnc(N3CCOCC3)c3nc(COc4ccc5ccccc5n4)cn23)CC1 [Cpd 109, 4-(8-Morpholino-2-((quinolin-2-yloxy)methyl)imidazo[1,2-a]pyrazin-5-yl)piperidine-1-sulfonamide trifluoroacetic acid salt]	0.087 µM	0.11 µM	8.15 ng/g	0.03	226 ng/mL
O=C(O)CN1CCC(c2cnc(N3CCOCC3)c3nc(COc4ccc5ccccc5n4)cn23)CC1 [Cpd 110, 2-(4-(8-Morpholino-2-((quinolin-2-yloxy)methyl)imidazo[1,2-a]pyrazin-5-yl)piperidin-1-yl)acetic acid trifluoroacetic acid salt]	0.288 µM	0.407 µM	0 ng/g	0	4.63 ng/mL
c1ccc2nc(OCc3cn4c(-c5ccc(N6CCNCC6)nc5)cnc(-c5ccc6nc[nH]c6c5)c4n3)ccc2c1 [Cpd 119, 2-((8-(1H-Benzo[d]imidazol-6-yl)-5-(6-(piperazin-1-yl)pyridin-3-yl)imidazo[1,2-a]pyrazin-2-yl)methoxy)quinoline trifluoroacetic acid salt]	0.026 µM	0.054 µM	108 ng/g	2.99	53.8 ng/mL
c1ccc2nc(OCc3cn4c(-c5cnc(N6CCNCC6)nc5)cnc(N5CCOCC5)c4n3)ccc2c1 [Cpd 121, 4-(5-(2-(Piperazin-1-yl)pyrimidin-5-yl)-2-((quinolin-2-yloxy)methyl)imidazo[1,2-a]pyrazin-8-yl)morpholine methane sulfonic acid salt]	0.083 µM	0.059 µM	81.5 ng/g	1.55	55.1 ng/mL
Nc1ccc(-c2cnc(N3CCOCC3)c3nc(COc4ccc5ccccc5n4)cn23)cn1 [Cpd 122, 5-(8-Morpholino-2-((quinolin-2-yloxy)methyl)imidazo[1,2-a]pyrazin-5-yl)pyridin-2-amine methane sulfonic acid salt]	0.008 µM	–	98.2 ng/g	–	35.6 ng/mL
c1ccc2nc(OCc3cn4c(-c5ccc(N6CCNCC6)nc5)cnc(N5CCOCC5)c4n3)ncc2c1 [Cpd 124, 4-(5-(6-(Piperazin-1-yl)pyridin-3-yl)-2-((quinazolin-2-yloxy)methyl)imidazo[1,2-a]pyrazin-8-yl)morpholine trifluoroacetic acid salt]	0.123 µM	0.115 µM	–	–	–
CN(C)c1ccc(-c2cnc(N3CCOCC3)c3nc(COc4ccc5ccccc5n4)cn23)cn1 [Cpd 127, N,N-Dimethyl-5-(8-morpholino-2-((quinolin-2-yloxy)methyl)imidazo[1,2-a]pyrazin-5-yl)pyridin-2-amine methane sulfonic acid salt]	0.03 µM	0.062 µM	–	–	–
CN1CCN(c2ccc(-c3cnc(N4CCOCC4)c4nc(COc5ccc6ccccc6n5)cn34)cn2)CC1 [Cpd 130, 4-(5-(6-(4-Methylpiperazin-1-yl)pyridin-3-yl)-2-((quinolin-2-yloxy)methyl)imidazo[1,2-a]pyrazin-8-yl)morpholine]	0.016 µM	0.042 µM	–	–	–
Clc1c(N2CC(c3ccc4ccccc4n3)C2)nc2c(N3CCOCC3)ncc(-c3ccc(N4CCNCC4)nc3)n12 [Cpd 132, 4-(3-Chloro-5-(6-(piperazin-1-yl)pyridin-3-yl)-2-(3-(quinolin-2-yl)azetidin-1-yl)imidazo[1,2-a]pyrazin-8-yl)morpholine trifluoroacetic acid salt]	0.871 µM	1.62 µM	–	–	–
c1ccc2nc(OCc3cn4c(-c5ccc(N6CCNCC6)nc5)cnc(C5CCOCC5)c4n3)ccc2c1 [compound 83, 2-((5-(6-(piperazin-1-yl)pyridin-3-yl)-8-(tetrahydro-2H-pyran-4-yl)imidazo[1,2-a]pyrazin-2-yl)methoxy)quinoline trifluoroacetic acid salt]	0.269 µM	0.316 µM	–	–	–
